One may read the pIC50 as −log10 of the IC50, conventionally taken in molar units. Low readings indicate a high IC50, high ones a low IC50. By pKd is commonly meant the Kd on a negative log10 scale, so that one unit is a factor of ten. A lower pKd goes with a high Kd. The pEC50 is the negative decadic logarithm of the EC50, by convention in mol/L. Broadly, the bioavailability is dose-corrected exposure relative to a reference, in per cent. Read a high bioavailability as much systemic uptake. As a reminder, the inhibition is the change of the read-out against control, counted positive when it falls.

The structures appear in SMILES notation. pEC50, pIC50, pKd: −log10 of the molar value.

Series [1] concerns DLD-1. Description: Antiproliferative activity against human DLD-1 cells. The class given is functional, cell-based.
The nature of series [2]: Binding affinity to GppNHp-bound N-terminal His6-tagged KRAS4B G12D mutant (1 to 169 residues) (unknown origin) by microscale thermophoresis. Details: species or system Homo sapiens.
Series [3] is described as follows: Binding affinity to GppNHp-bound N-terminal His6-tagged KRAS4B G12D mutant (1 to 169 residues) (unknown origin) at 10 uM by 19F NMR Spectroscopy. Details: species or system Homo sapiens.
The nature of series [4]: Binding affinity to GppNHp-bound N-terminal His6-tagged KRAS4B G12D mutant (1 to 169 residues) (unknown origin) by isothermal titration calorimetry. Details: species or system Homo sapiens. For orientation: Isothermal titration calorimetry measures the heat released or taken up as one component is titrated into another.
Series [5] has as its system GTPase KRas (Homo sapiens), P01116 [G12C]. Kind of series: Binding affinity to human hexahistidine-tagged KRas G12C mutant (1 to 169 residues) expressed in Escherichia coli(BL21 (DE3)) assessed as rate constant for covalent modification by measuring Kobs/[I] at 10 uM by liquid chromatography-electrospray mass spectrometry analysis.
For series [6], the target named is T1, GTPase KRas (Homo sapiens, UniProt P01116). Description: Inhibition of KRas activation in HEK 293T-REx Flp-In cells harboring Venus-RBD-CRD/mCherry-CAAX assessed as reduction in Venus-RBD-CRD recruitment to plasma membrane by inverted confocal microscopy. Set-up: species or system Flp-In-T-REx-293.
Series [7] deals with DLD-1. Kind of series: Antiproliferative activity against human DLD-1 cells incubated for 72 hrs by CellTitreGlo assay. It counts as functional, cell-based. Conditions: DLD-1, 72 h.
Series [8] relates to NCI-H358. Description: Antiproliferative activity against human NCI-H358 cells incubated for 14 days by alamar blue dye based assay. The class given is functional, cell-based. Conditions: NCI-H358, 336 h.
The nature of series [9]: Oral bioavailability in BALB/c mouse at 10 mg/kg by LC-MS/MS analysis. It counts as ADME, organism-based. Conditions: in vivo.
Series [10] concerns GTPase KRas (Homo sapiens), P01116 [G12C]. Kind of series: Covalent binding affinity to GDP-loaded hexahistidine-tagged KRas G12C mutant (1 to 169 residues) (unknown origin) expressed in Escherichia coli assessed as rate constant by liquid chromatography-electrospray mass spectrometry analysis.
Series [11] relates to A549. Description: Antiproliferative activity against human A549 cells incubated for 3 days by CellTiter-Glo assay. Conditions: A549, 72 h. It counts as functional, cell-based. In general terms: In ATP-based viability assays light output follows the ATP content of the culture.
Series [12] has as its target T1, GTPase KRas. Kind of series: Inhibition of GDP-bound KRas activation (unknown origin) expressed in Escherichia coli Rosetta2 (DE3) cells assessed as reduction in SOS-catalyzed nucleotide exchange at 1 mM in presence of BODIPY-GTP by fluorescence method relative to control.
In series [13] the target is GTPase KRas (Homo sapiens, UniProt P01116, G12D). Kind of series: Binding affinity to 15N-labelled GDP bound KRas G12D mutant ( 1 to 169 residues) (unknown origin) expressed in Escherichia coli Rosetta 2 (DE3) cells by 1H/15N- HSQC spectroscopy.
For series [14], the system named is DLD-1. Description: Antiproliferative activity against human DLD-1 cells harboring KRAS G13D mutant incubated for 72 hrs by CellTitreGlo assay. Conditions: DLD-1, 72 h. It counts as functional, cell-based.

With `NC1(C(=O)NCCCn2cc(-c3ccc(OC(F)(F)F)cc3)c3cc(CN4CCN(Cc5c(Cl)cccc5Cl)CC4)ccc32)CCNCC1`, the pIC50 in series [1] is 5.06. Further, the pKd in series [2], in series [3] and in series [4] was 5.05 throughout.
As to `C=CC(=O)N1CCN(c2ncnc3cc(-c4ccccc4O)c(Cl)cc23)CC1`, in series [5], the K is 12 M⁻¹ s⁻¹.
For `Cc1[nH]c2cc(Cl)cc(Cl)c2c1CCN`, the pEC50 in [6] was 4.80.
`C=CC(=O)N1CCN(c2ncnc3c(F)c(-c4c(O)cccc4F)c(Cl)cc23)CC1` (atropisomer S): the K in series [5] amounted to 1100 M⁻¹ s⁻¹.
`COc1cccc(-c2ccc(Nc3ccc(CN(C)C)cc3)c(OC)c2F)c1`: the pIC50 in series [7] was 5.35.
Turning to `Cn1cnc(Cn2ccc3ccc(CNCc4[nH]c5ccccc5c4[C@H]4NC(=O)c5ccc(O)cc54)cc32)c1`, the pIC50 in [8] is 5.17.
Turning to `C=CC(=O)N1CC(N2CCN(C(=O)CNc3cc(C4(C)CC4)c(Cl)cc3O)CC2)C1`, the results for the K in series [5] and in [10] were 140 M⁻¹ s⁻¹ and 76 M⁻¹ s⁻¹, respectively. This compound came in with a bioavailability in [9] of more than 60%.
In turn, `CCCC(CCC)COC(=O)[C@@H](C)NP(=O)(OCCNC(=O)CCl)OP(=O)(O)OC[C@H]1O[C@@H](n2cnc3c(=O)[nH]c(N)nc32)[C@H](O)[C@@H]1O` (stereo partly specified) had a pEC50 in series [11] of 4.36.
With `CC[C@H](C)[C@H](N)C(=O)Nc1ccc2nc(Cc3c[nH]c4ccccc34)[nH]c2c1`, the inhibition in [12] was found to be 78%.
Take `c1ccc2c(Cc3nc4ccncc4[nH]3)c[nH]c2c1`: in series [13], the pKd is 2.89.
`COc1nc(-c2cccc3c2OCCO3)ccc1Nc1ccc(CN(C)C)cc1` had a pIC50 in [14] of 5.10.

These data come from ChEMBL document CHEMBL4673313, “Small-Molecule Inhibitors Directly Targeting KRAS as Anticancer Therapeutics” (J Med Chem, 2020).
